Data published in ChEMBL document CHEMBL3600308, “Antiproliferative Trihydroxyalkylcyclohexenones from Pleiogynium timoriense” (J Nat Prod, 2015).

Tested on: A2780
Experiment: Antiproliferative activity against drug-sensitive human A2780 cells assessed as inhibition of cell growth after 2 days by Alamar Blue assay
Type: functional, cell-based
Settings: A2780, 48 h

SMILES	IC50 [µM]
CCCCCCCC/C=C\CCCCCCCCC[C@]1(O)C(=O)C=C[C@H](O)[C@H]1O	0.7
CCCCCCCC/C=C\CCCCCCC[C@]1(O)C(=O)C=C[C@H](O)[C@H]1O	0.8
CCCCCCCC/C=C\CCCCCCCCCCC[C@]1(O)C(=O)C=C[C@H](O)[C@H]1O	0.8
